According to patent US12240844B2 (Voronoi, Inc., priority 2019, dated 2025):

Key:
IL-6 = IL-6 secretion inhibition in LPS-treated THP-1 cells (ELISA); type: cell-based; conditions: Homo sapiens, compound 0.5 μM, LPS 500 ng/ml, 24 hours, read-out: THP1/IL6 (% inhib)
Experimental: In order to evaluate the cytokine secretion inhibitory efficacy of mononuclear cells, THP-1 cells (ATCC, #TIB-202) as a human-derived monocyte cell line were cultured in RPMI-1640 (Hyclone, SH30027.01) media in which 10% fetal bovine serum (Hyclone, SH30084.03), 1% penicillin streptomycin (Welgene, LS202-02) and 50 μM 2-Mercaptoethanol (Gibco, #21985023) were contained. In the test, 1.5-2×10^5 cells/250 μl per each well were dispensed in a 48-well plate (SPL, #30048) and incubated in an incubator at 37° C. and 5% CO2 for 16 hours, and then the compounds were diluted in DMSO so that the final concentration was 0.5 μM. It was treated with Lipopolysaccharides (LPS) (sigma, #L6529) […]. After treatment with the compound, the LPS was treated so that the final concentration was 500 ng/ml, and then the cell culture fluid was collected after culturing for 24 hours, and the degrees of the cytokines IL-6 (R&D system, #D6050) and TNF-α (R&D system, #DTA00D) contained in the culture fluid were collected using each ELISA kit. After performing the experiment according to the manufacturer's instructions, the absorbance at 450 nm was measured and analyzed using a microplate reader.

[1] = target: T1, LRRK2, LRRK2 (G2019S), DYRK1, CLK1 and TTK kinases (Homo sapiens, UniProt Q13627); assay: Enzyme IC50 by Kinase HotSpot service (Reaction Biology Corporation), values marked with *; type: biochemical; conditions: DYRK1, ATP 10 uM
T1 construct: other: DYRK1; Kinase HotSpot service (Reaction Biology), ATP 10 uM
In short: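 Radiometric-service kinase assays (Reaction Biology HotSpot protocol) run at 10 uM ATP under uniform conditions. Compounds tested as 3-fold dilution series from a top concentration of […] to give IC50.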

| SMILES | inhibition at 0.5 µM (IL-6) [%] | IC50 [1] [nM] |
| --- | --- | --- |
| CCNc1cc(Nc2ccc(P3(=O)CCN(C(C)=O)CC3)cc2OC)nc2[nH]cc(C(F)(F)F)c12 [Example 42, 1-(4-(4-((4-(ethylamino)-3-(trifluoromethyl)-1H-pyrrolo[2,3-b]pyridin-6-yl)amino)-3-methoxyphenyl)-4-oxido-1,4-azaphosphinan-1-yl)ethan-1-one] | 48.3 | – |
| CCNc1cc(Nc2ccc(C(=O)N3C[C@@H]4C[C@H]3CO4)c3c2OCCO3)nc2[nH]cc(C(F)(F)F)c12 [Example 44, ((1S,4S)-2-oxa-5-azabicyclo[2.2.1]heptan-5-yl)(8-((4-(ethylamino)-3-(trifluoromethyl)-1H-pyrrolo[2,3-b]pyridin-6-yl)amino)-2,3-dihydrobenzo[b] [1,4]dioxin-5-yl)methanone] | 47.9 | – |
| COc1cc(P2(=O)CCN(C(C)=O)CC2)ccc1Nc1cc(C2CC2)c2c(C(F)(F)F)c[nH]c2n1 [Example 48, 1-(4-(4-((4-cyclopropyl-3-(trifluoromethyl)-1H-pyrrolo[2,3-b]pyridin-6-yl)amino)-3-methoxyphenyl)-4-oxido-1,4-azaphosphinan-1-yl)ethan-1-one] | – | < 100 |
| O=C(c1ccc(Nc2cc(C3CC3)c3c(C(F)(F)F)c[nH]c3n2)c2c1OCO2)N1CCC(N2CCOCC2)CC1 [Example 49, (7-((4-cyclopropyl-3-(trifluoromethyl)-1H-pyrrolo[2,3-b]pyridin-6-yl)amino)benzo[d][1,3]dioxol-4-yl)(4-morpholinopiperidin-1-yl)methanone] | – | 101 to 300 |
| CCNc1cc(Nc2ccc(C(=O)N3CCC(N4CCOCC4)CC3)c3c2OCC3)nc2[nH]cc(C(F)(F)F)c12 [Example 90, (7-((4-(ethylamino)-3-(trifluoromethyl)-1H-pyrrolo[2,3-b]pyridin-6-yl)amino)-2,3-dihydrobenzofuran-4-yl)(4-morpholinopiperidin-1-yl)methanone] | 12.2 | – |
| O=C(c1ccc(Nc2cc(C3CC3)c3c(C(F)(F)F)c[nH]c3n2)c2c1CCO2)N1CCOCC1 [Example 91, (7-((4-cyclopropyl-3-(trifluoromethyl)-1H-pyrrolo[2,3-b]pyridin-6-yl)amino)-2,3-dihydrobenzofuran-4-yl)(morpholino) methanone] | 52.5 | < 100 |
| O=C(c1ccc(Nc2cc(C3CC3)c3c(C(F)(F)F)c[nH]c3n2)c2c1CCO2)N1CCC(N2CCOCC2)CC1 [Example 93, (7-((4-cyclopropyl-3-(trifluoromethyl)-1H-pyrrolo[2,3-b]pyridin-6-yl)amino)-2,3-dihydrobenzofuran-4-yl)(4-morpholinopiperidin-1-yl)mthanone] | – | < 100 |
| CCNc1cc(Nc2ccc(P3(=O)CCN(C4CCOCC4)CC3)cc2OC)nc2[nH]cc(C(F)(F)F)c12 [Example 94, 4-(4-((4-(ethylamino)-3-(trifluoromethyl)-1H-pyrrolo[2,3-b]pyridin-6-yl)amino)-3-methoxyphenyl)-1-(tetrahydro-2H-pyran-4-yl)-1,4-azaphosphinane 4-oxide] | 21 | – |
| COCCNc1cc(Nc2ccc(S(=O)(=O)N3CCC(N4CCOCC4)CC3)c3c2OCCO3)nc2[nH]cc(C(F)(F)F)c12 [Example 97, N^4-(2-methoxyethyl)-N^6-(8-((4-morpholonopiperidin-1-yl)sulfonyl)-2,3-dihydrobenzo[b] [1,4]dioxin-5-yl)-3-(trifluoromethyl)-1H-pyrrolo[2,3-b]pyridine-4,6-diamine] | 17 | – |
| CCNc1cc(Nc2ccc(C(=O)N3CCN(C4COC4)CC3)c3c2OCCO3)nc2[nH]cc(C(F)(F)F)c12 [Example 173, (8-((4-(ethylamino)-3-(trifluoromethyl)-1H-pyrrolo[2,3-b]pyridin-6-yl)amino)-2,3-dihydrobenzo[b] [1,4]dioxin-5-yl)(4-(oxetan-3-yl)piperazin-1-yl)methanone] | 9.1 | – |
| COc1cc(S(=O)(=O)N2CCC(N3CCOCC3)CC2)ccc1Nc1cc(NCCS(C)(=O)=O)c2c(C(F)(F)F)c[nH]c2n1 [Example 194, N^6-(2-methoxy-4-((4-morpholinopiperidin-1-yl)sulfonyl)phenyl)-N^4-(2-(methylsulfonyl)ethyl)-3-(trifluoromethyl)-1H-pyrrolo[2,3-b]pyridine-4,6-diamine] | 6.3 | – |
| COc1cc(S(=O)(=O)N2CCOCC2)ccc1Nc1cc(C2CC2)c2c(C(F)(F)F)c[nH]c2n1 [Example 222, 4-cyclopropyl-N-(2-methoxy-4-(morpholinosulfonyl)phenyl)-3-(trifluoromethyl)-1H-pyrrolo[2,3-b]pyridin-6-amine] | – | 101 to 300 |
| N#Cc1c[nH]c2nc(Nc3ccc(C(=O)N4CCOCC4)c4c3OCCO4)cc(C3CC3)c12 [Example 225, 4-cyclopropyl-6-((8-(morpholine-4-carbonyl)-2,3-dihydrobenzo[b] [1,4]dioxin-5-yl)amino)-1H-pyrrolo[2,3-b]pyridine-3-carbonitrile] | – | 101 to 300 |
| N#Cc1c[nH]c2nc(Nc3ccc(C(=O)N4CCC(N5CCOCC5)CC4)c4c3OCCO4)cc(C3CC3)c12 [Example 226, 4-cyclopropyl-6-((8-(4-morpholinopiperidine-1-carbonyl)-2,3-dihydrobenzo[b] [1,4]dioxin-5-yl)amino)-1H-pyrrolo[2,3-b]pyridine-3-carbonitrile] | – | < 100 |
| COc1cc(S(=O)(=O)N2CCC(N3CCOCC3)CC2)ccc1Nc1cc(C2CC2)c2c(C#N)c[nH]c2n1 [Example 228, 4-cyclopropyl-6-((2-methoxy-4-((4-morpholinopiperidin-1-yl)sulfonyl)phenyl)amino)-1H-pyrrolo[2,3-b]pyridine-3-carbonitrile] | – | < 100 |
| CNc1cc(Nc2ccc(S(=O)(=O)N3CCC(N4CCOCC4)CC3)c3c2OCCO3)nc2[nH]cc(C(F)(F)F)c12 [Example 233, N^4-methyl-N^6-(8-((4-morpholinopiperidin-1-yl)sulfonyl)-2,3-dihydrobenzo [b] [1,4]dioxin-5-yl)-3-(trifluoromethyl)-1H-pyrrolo[2,3-b]pyridine-4,6-diamine] | 4.3 | – |
| CNc1cc(Nc2ccc(C(=O)N3CCC(N4CCOCC4)CC3)c3c2OCC3)nc2[nH]cc(C(F)(F)F)c12 [Example 234, (7-((4-(methylamino)-3-(trifluoromethyl)-1H-pyrrolo[2,3-b]pyridin-6-yl)amino)-2,3-dihydrobenzofuran-4-yl)(4-morpholinopiperidin-1-yl)methanone] | 50.9 | – |
| CNc1cc(Nc2ccc(S(=O)(=O)N3CCC(N4C[C@H]5C[C@@H]4CO5)CC3)cc2OC)nc2[nH]cc(C(F)(F)F)c12 [Example 243, N^6-(4-((4-((1R,4R)-2-oxa-5-azabicyclo[2.2.1]heptan-5-yl)piperidin-1-yl)sulfonyl)-2-methoxyphenyl)-N^4-methyl-3-(trifluoromethyl)-1H-pyrrolo[2,3-b]pyridine-4,6-diamine] | 32.3 | – |
| CCNc1cc(Nc2ccc(C(=O)N3CCC(N4C[C@H]5C[C@@H]4CO5)CC3)c3c2OCC3)nc2[nH]cc(C(F)(F)F)c12 [Example 244, (4-((1R,4R)-2-oxa-5-azabicyclo[2.2.1]heptan-5-yl)piperidin-1-yl)(7-((4-(ethylamino)-3-(trifluoromethyl)-1H-pyrrolo[2,3-b]pyridin-6-yl)amino)-2,3-dihydrobenzofuran-4-yl)methanone] | 40.1 | – |
| CCNc1cc(Nc2ccc(C(=O)N3CCN(C4COC4)CC3)c3c2OCC3)nc2[nH]cc(C(F)(F)F)c12 [Example 248, (7-((4-(ethylamino)-3-(trifluoromethyl)-1H-pyrrolo[2,3-b]pyridin-6-yl)amino)-2,3-dihydrobenzofuran-4-yl)(4-(oxetan-3-yl)piperazin-1-yl)methanone] | 48.4 | – |
